Test results reported in ChEMBL document CHEMBL5649166, “RIP3 induces apoptosis independent of pronecrotic kinase activity” (Mol Cell, 2014).

What was measured:
[1] = target: BDNF/NT-3 growth factors receptor (Homo sapiens) (UniProt Q16620); test: Residual activity of human TRKB using poly[Glu:Tyr] (4:1) as substrate at 1 uM in presence of 32P-ATP by Hotspot assay relative to control
[2] = target: Activated CDC42 kinase 1 (Homo sapiens) (UniProt Q07912); test: Inhibition of human ACK1 using EAIYAAPFAKKK as substrate at 1 uM in presence of 32P-ATP by Hotspot assay relative to control; values are per cent of control
[3] = target: Tyrosine-protein kinase Lyn (Homo sapiens) (UniProt P07948); test: Inhibition of human LYN using poly[Glu:Tyr] (4:1) as substrate at 1 uM in presence of 32P-ATP by Hotspot assay relative to control; values are per cent of control
[4] = target: T1, Serine/threonine-protein kinase 4 (Homo sapiens) (UniProt Q13043); test: Inhibition of human MST1/STK4 using KKSRGDYMTMQIG as substrate at 1 uM in presence of 32P-ATP by Hotspot assay relative to control; values are per cent of control
T1 sequence (whole entry): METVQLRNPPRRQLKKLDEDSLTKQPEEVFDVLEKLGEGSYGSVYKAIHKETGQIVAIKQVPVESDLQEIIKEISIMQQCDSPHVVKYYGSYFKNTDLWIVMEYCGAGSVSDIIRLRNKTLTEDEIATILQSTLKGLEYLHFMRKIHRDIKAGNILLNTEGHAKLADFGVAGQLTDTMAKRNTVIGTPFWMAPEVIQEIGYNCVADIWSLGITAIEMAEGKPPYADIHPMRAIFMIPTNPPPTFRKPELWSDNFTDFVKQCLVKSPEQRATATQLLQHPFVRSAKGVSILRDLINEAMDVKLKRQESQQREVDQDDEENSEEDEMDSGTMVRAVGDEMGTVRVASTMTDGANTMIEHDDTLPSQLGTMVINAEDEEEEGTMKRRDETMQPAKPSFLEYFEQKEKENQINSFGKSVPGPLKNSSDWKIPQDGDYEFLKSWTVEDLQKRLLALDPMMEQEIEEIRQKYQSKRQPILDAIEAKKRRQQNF

[5] = target: T2, Protein kinase C iota type (Homo sapiens) (UniProt P41743); test: Inhibition of human PKCiota using ERMRPRKRQGSVRRRV as substrate at 1 uM in presence of 32P-ATP by Hotspot assay relative to control; values are per cent of control
T2 sequence (whole entry): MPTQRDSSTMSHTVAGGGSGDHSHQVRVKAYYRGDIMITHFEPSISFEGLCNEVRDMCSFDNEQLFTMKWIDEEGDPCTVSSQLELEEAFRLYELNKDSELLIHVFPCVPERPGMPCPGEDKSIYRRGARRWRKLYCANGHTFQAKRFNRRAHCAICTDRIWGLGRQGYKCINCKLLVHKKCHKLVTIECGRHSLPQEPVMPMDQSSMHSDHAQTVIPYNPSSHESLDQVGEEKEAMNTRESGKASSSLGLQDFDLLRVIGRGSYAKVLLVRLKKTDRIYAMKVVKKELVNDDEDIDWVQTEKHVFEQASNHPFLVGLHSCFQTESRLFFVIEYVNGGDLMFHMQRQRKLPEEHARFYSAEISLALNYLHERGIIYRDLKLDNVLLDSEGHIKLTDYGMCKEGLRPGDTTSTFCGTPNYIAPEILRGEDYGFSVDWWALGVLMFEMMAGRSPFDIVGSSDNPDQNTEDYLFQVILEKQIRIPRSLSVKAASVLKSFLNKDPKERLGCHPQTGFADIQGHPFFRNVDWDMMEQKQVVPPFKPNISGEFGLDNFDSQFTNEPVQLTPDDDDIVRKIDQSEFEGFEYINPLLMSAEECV

[6] = target: Ephrin type-A receptor 5 (Homo sapiens) (UniProt P54756); test: Inhibition of human EPHA5 using poly[Glu:Tyr] (4:1) as substrate at 1 uM in presence of 32P-ATP by Hotspot assay relative to control; values are per cent of control
[7] = target: Homeodomain-interacting protein kinase 2 (Homo sapiens) (UniProt Q9H2X6); test: Inhibition of human HIPK2 using myelin basic protein as substrate at 1 uM in presence of 32P-ATP by Hotspot assay relative to control; values are per cent of control
[8] = target: T3, Testis-specific serine/threonine-protein kinase 2 (Homo sapiens) (UniProt Q96PF2); test: Inhibition of human TSSK2 using KKKVSRSGLYRSPSMPENLNRPR as substrate at 1 uM in presence of 32P-ATP by Hotspot assay relative to control; values are per cent of control
T3 sequence (whole entry): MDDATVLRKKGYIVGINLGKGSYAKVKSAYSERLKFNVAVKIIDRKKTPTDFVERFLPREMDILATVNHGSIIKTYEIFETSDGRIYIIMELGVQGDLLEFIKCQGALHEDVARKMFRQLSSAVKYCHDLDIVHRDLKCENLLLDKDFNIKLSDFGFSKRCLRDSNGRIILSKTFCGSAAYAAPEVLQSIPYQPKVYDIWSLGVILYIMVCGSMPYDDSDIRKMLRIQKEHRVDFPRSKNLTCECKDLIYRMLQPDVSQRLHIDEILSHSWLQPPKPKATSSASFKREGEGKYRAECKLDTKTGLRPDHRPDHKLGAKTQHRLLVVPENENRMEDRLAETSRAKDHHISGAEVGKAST

[9] = target: Mitogen-activated protein kinase kinase kinase kinase 5 (Homo sapiens) (UniProt Q9Y4K4); test: Inhibition of human KHS/MAP4K5 using myelin basic protein as substrate at 1 uM in presence of 32P-ATP by Hotspot assay relative to control; values are per cent of control
Chain of Mitogen-activated protein kinase kinase kinase kinase 5 (Homo sapiens) (Q9Y4K4 whole entry, looked up): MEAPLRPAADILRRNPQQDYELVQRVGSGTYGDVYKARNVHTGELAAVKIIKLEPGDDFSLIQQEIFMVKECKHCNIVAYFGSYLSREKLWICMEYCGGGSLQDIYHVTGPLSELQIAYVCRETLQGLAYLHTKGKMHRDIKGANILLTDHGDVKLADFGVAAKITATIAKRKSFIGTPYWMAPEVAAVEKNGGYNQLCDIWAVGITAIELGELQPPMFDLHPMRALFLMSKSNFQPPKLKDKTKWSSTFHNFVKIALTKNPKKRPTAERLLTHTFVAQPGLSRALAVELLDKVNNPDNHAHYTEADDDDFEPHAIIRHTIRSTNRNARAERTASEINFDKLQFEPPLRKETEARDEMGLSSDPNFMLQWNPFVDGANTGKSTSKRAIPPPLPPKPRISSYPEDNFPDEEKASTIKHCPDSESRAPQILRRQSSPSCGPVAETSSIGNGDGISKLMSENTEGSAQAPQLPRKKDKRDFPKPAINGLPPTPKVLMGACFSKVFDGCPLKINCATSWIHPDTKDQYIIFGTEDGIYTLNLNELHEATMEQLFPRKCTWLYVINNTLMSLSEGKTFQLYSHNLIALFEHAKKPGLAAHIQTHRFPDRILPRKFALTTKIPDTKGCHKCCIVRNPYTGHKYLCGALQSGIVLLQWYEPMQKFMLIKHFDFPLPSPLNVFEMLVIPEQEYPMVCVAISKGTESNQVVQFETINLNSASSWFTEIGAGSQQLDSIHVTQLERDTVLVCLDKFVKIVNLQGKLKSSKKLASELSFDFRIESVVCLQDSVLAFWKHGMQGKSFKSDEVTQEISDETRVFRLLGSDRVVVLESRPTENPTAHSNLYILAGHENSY

Chain of BDNF/NT-3 growth factors receptor (Homo sapiens) (Q16620 32-822 limits assumed): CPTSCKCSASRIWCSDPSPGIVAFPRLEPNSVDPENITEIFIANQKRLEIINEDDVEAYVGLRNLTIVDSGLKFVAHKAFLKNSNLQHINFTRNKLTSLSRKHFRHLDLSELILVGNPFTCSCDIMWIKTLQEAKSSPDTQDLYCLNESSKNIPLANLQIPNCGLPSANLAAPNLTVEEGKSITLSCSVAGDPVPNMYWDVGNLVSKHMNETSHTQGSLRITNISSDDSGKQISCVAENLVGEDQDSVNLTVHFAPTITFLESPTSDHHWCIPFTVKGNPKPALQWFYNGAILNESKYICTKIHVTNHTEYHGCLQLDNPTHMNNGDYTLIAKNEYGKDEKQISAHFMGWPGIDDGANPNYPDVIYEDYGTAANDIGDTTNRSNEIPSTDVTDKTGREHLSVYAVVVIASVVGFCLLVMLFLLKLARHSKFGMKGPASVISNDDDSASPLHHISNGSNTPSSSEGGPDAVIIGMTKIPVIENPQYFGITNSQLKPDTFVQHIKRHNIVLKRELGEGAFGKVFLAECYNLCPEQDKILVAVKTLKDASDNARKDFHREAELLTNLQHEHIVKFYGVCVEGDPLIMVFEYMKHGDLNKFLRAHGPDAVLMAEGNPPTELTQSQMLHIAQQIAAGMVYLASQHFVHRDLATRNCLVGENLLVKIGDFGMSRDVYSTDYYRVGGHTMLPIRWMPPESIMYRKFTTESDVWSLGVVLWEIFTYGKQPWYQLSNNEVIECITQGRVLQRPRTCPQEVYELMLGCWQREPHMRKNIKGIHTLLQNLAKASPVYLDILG
Chain of Tyrosine-protein kinase Lyn (Homo sapiens) (P07948 2-512 limits assumed): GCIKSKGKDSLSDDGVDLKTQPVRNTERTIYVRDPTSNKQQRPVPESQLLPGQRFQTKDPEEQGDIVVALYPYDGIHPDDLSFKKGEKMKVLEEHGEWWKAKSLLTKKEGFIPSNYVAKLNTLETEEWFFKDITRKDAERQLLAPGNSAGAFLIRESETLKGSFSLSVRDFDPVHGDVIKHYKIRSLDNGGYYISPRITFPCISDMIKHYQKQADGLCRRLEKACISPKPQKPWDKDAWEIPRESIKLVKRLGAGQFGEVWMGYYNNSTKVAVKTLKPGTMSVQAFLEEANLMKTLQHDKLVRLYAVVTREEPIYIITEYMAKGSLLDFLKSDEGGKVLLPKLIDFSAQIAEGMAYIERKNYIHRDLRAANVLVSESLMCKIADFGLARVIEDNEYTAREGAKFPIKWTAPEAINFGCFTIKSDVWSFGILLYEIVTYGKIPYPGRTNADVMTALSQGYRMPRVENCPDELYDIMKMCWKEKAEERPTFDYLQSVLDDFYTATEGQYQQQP
Chain of Activated CDC42 kinase 1 (Homo sapiens) (Q07912 whole entry, looked up): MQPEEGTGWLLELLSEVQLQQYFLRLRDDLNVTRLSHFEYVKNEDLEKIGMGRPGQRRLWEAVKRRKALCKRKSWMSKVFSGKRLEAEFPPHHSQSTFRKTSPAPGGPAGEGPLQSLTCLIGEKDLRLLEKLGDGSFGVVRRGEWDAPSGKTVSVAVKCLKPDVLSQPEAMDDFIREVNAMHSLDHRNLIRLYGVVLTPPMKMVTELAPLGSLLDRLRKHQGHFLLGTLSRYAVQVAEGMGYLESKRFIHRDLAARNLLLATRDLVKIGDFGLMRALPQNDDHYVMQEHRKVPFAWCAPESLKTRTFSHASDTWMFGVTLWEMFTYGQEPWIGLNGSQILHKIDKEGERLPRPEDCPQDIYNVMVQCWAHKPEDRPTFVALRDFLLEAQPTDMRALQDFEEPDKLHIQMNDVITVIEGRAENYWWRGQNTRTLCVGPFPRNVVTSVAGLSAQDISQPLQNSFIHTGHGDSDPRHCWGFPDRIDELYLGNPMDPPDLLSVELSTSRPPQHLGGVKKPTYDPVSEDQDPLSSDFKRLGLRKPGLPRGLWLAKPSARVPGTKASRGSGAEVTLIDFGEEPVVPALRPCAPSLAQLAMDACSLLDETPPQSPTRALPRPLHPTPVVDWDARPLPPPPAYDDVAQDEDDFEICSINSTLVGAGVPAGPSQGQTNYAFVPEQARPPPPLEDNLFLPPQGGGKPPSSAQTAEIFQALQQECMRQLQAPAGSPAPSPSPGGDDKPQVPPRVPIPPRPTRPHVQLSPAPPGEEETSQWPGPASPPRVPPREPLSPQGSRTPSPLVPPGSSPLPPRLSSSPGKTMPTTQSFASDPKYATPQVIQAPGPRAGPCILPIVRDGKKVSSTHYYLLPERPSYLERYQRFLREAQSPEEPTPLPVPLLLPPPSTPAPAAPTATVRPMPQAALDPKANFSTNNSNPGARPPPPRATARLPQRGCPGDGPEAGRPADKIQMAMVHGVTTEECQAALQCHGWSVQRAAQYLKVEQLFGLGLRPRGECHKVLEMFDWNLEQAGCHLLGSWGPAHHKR
Chain of Homeodomain-interacting protein kinase 2 (Homo sapiens) (Q9H2X6 whole entry, looked up): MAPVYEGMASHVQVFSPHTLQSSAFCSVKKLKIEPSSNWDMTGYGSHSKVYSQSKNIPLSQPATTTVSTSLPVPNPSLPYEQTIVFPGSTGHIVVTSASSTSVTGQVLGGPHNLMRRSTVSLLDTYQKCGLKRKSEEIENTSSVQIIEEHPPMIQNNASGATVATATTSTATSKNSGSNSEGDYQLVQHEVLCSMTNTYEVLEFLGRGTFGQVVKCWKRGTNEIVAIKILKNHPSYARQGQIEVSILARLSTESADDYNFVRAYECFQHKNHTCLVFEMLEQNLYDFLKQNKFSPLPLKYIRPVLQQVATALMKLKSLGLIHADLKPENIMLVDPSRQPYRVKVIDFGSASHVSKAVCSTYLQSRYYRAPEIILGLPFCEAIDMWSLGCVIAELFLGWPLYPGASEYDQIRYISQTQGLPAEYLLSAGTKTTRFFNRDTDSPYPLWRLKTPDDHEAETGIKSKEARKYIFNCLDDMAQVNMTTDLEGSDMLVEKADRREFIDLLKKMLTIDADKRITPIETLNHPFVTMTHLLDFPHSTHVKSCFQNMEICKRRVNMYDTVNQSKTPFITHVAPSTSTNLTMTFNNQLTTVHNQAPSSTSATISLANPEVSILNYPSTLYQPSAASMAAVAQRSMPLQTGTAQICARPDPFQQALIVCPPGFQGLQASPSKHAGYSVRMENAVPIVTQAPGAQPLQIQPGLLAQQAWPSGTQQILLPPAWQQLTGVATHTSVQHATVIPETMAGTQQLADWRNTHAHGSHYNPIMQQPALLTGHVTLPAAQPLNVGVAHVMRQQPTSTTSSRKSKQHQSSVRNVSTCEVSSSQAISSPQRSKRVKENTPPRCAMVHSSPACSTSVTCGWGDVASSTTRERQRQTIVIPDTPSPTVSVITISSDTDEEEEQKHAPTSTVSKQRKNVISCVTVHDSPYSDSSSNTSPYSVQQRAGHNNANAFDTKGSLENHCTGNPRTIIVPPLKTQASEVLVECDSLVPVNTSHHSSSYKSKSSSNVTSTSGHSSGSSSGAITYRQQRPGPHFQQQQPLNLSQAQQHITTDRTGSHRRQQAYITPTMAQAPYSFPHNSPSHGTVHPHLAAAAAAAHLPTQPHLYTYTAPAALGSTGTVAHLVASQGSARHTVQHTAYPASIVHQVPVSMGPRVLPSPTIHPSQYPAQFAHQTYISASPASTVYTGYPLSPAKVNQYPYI

| SMILES | residual activity [1] | residual activity [2] | residual activity [3] | residual activity [4] | residual activity [5] | residual activity [6] | residual activity [7] | residual activity [8] | residual activity [9] |
| --- | --- | --- | --- | --- | --- | --- | --- | --- | --- |
| Cc1cc(-c2cnc(N)c3c(-c4ccc5scnc5c4)csc23)n(C)n1 | 106% | 5.38% | 17% | 96.9% | 102% | 53.4% | 95.9% | 97.2% | 64.3% |
| CC(C)S(=O)(=O)c1ccc2nccc(Nc3ccc4scnc4c3)c2c1 | 86.7% | 47.8% | 20% | 98.5% | 83% | 70.6% | 101% | 102% | 109% |
| CNC(=O)c1ccc2c(c1)ncn2-c1ccc(CC(=O)OC(C)(C)C)cc1 | 97.8% | 93.4% | 73.5% | 95.3% | 93.8% | 96.7% | 88.1% | 98.9% | 89% |
